In ChEMBL document CHEMBL1151880, “Cytotoxicity and structure-activity relationships of four alpha-N-heterocyclic thiosemicarbazone derivatives crystal structure of 2-acetylpyrazine thiosemicarbazone” (Bioorg Med Chem Lett, 2009):

Legend:
K562 = assay: Antitumor activity against human K562 cells assessed as induction of cell death after 48 hrs by MTT assay; assay type: functional, cell-based; conditions: K562, 48 h
Bel-7402 = assay: Antitumor activity against human Bel7402 cells assessed as induction of cell death after 48 hrs by MTT assay; assay type: functional, cell-based; conditions: Bel-7402, 48 h

Structure (SMILES) | IC50 (K562) | IC50 (Bel-7402)
C/C(=N\N=C(\N)S)c1cnccn1 | 47.5 µM | 238 µM
C/N=C(\S)N/N=C(\C)c1cnccn1 | 25.9 µM | 462 µM
NC(=S)N/N=C(\c1ccccc1)c1ccccn1 | 28.2 µM | 376 µM
CNC(=S)N/N=C(\c1ccccc1)c1ccccn1 | 0.002 µM | 0.138 µM
